The source of these data is patent US6949522B2, “β-2′- or 3′-halonucleosides” (Pharmasset, Inc., priority 2001, dated 2005).

Marks after values point to notes of the source that are not given here. A value given as a limit tells only on which side of the number the result lay.

As usually defined, the IC50 is the concentration that inhibits the measured activity by half. The term EC50 denotes the midpoint of the concentration-response curve.

One series has as its system human PBM cells. Briefly: in vitro. The format is cell-based. The protocol: The compounds were evaluated for their potential toxic effects on uninfected PHA-stimulated human PBM cells, in CEM (T-lymphoblastoid cell line obtained from American Type Culture Collection, Rockville, Md.) and Vero (African green monkey kidney) cells. PBM cells were obtained from whole blood of healthy seronegative donors (HIV-1 and hepatitis B virus) by single-step Ficoll-Hypaque discontinous gradient centrifugation. […] All of the cells were plated in 96-well cell culture plates containing ten-fold serial dilutions of the test drug. […] At the end of incubation, MTT tetrazolium dye solution (Cell titer 96®, Promega, Madison, Wis.) was added to each well and incubated overnight. The reaction was stopped with stop solubilization solution (Promega, Madison, Wis.). The plates were incubated for 5 hours to ensure that the formazan crystals were dissolved. The plates were read at a wavelength of 570 nm using an ELISA plate reader (Bio-tek instruments, Inc., Winooski, Vt., Model # EL 312e). […] Bookmark not defined.

A further series concerns HIV-1LAI. Briefly: HIV assay in human PBM cells (RT activity of supernatant). The format is cell-based. The conditions noted are these: 5 days, read-out: Anti-HIV-1 Activity (EC50). From the text: Human peripheral blood mononuclear (PBM) cells (obtained from Atlanta Red Cross) were isolated by Ficoll-Hypaque discontinuous gradient centrifugation from healthy seronegative donors. Cells were stimulated with phytohemagglutinin A (Difco, Sparks, Md.) for 2-3 days prior to use. HIV-1LAI obtained from the Centers for Disease Control and Prevention (Atlanta, Ga.) was used as the standard reference virus for the antiviral assays. The molecular infetious clones HIV-1xxBru and HIV-1M184Vpin were obtained from Dr. John Mellors (University of Pittsburgh). Infections were done in bulk for one hour, either with 100 TCID50/1×10^7 cells for a flask (T25) assay or with 200 TCID50/6×10^5 cells/well for a 24 well plate assay. Cells were added to a plate or flask containing a ten-fold serial dilution of the test compound. Assay medium was RPMI-1640 supplemented with heat inactivated 16% fetal bovine serum, 1.6 mM L-glutamine, 80 IU/ml penicillin, 80 μg/ml streptomycin, 0.0008% DEAE-Dextran, 0.045% sodium bicarbonate, and 26 IU/ml recombinant interleukin-2 (Chiron Corp, Emeryville, Calif.). AZT was used as a positive control for the assay. Untreated and uninfected PBM cells were grown in parallel at equivalent cell concentrations as controls. The cell cultures were maintained in a humidified 5% CO2-air at 37° C. for 5 days and supernatants were collected for reverse transcriptase (RT) activity.
Supernatants were centrifuged at 12,000 rpm for 2 hours to pellet the virus. The pellet was solubilized with vortexing in 100 μl virus solubilization buffer (VSB) containing 0.5% Triton X-100, 0.8 M NaCl, 0.5 mM phenylmethylsulfonyl fluoride, 20% glycerol, and 0.05 M Tris, pH 7.8. Ten μL of each sample were added to 75 μL RT reaction mixture (0.06 M Tris, pH 7.8, 0.012 M MgCl2, 0.006 M dithiothreitol, 0.006 mg/ml poly (rA)n, oligo (dT)12-18, 96 μg/ml dATP, and 1 μM of 0.08 mCi/ml ^3H-thymidine triphosphate (Moravek Biochemicals, Brea, Calif.) and incubated at 37° C. for 2 hours. The reaction was stopped by the addition of 100 μL 10% trichloroacetic acid containing 0.05% sodium pyrophosphate. The acid insoluble product was harvested onto filter paper using a Packard Harvester (Meriden, Conn.), and the RT activity was read on a Packard Direct Beta Counter (Meriden, Conn.). The RT results were expressed in counts per minute (CPM) per milliliter.

In series [1] the test system is Vero (African green monkey kidney) cells. Briefly: in vitro. The format is cell-based. How it is done: (§1) The compounds were evaluated for their potential toxic effects on uninfected PHA-stimulated human PBM cells, in CEM (T-lymphoblastoid cell line obtained from American Type Culture Collection, Rockville, Md.) and Vero (African green monkey kidney) cells. PBM cells were obtained from whole blood of healthy seronegative donors (HIV-1 and hepatitis B virus) by single-step Ficoll-Hypaque discontinous gradient centrifugation. Log phase Vero, CEM and PHA-stimulated human PBM cells were seeded at a density of 5×10^3, 2.5×10^3 and 5×10^4 cells/well respectively. All of the cells were plated in 96-well cell culture plates containing ten-fold serial dilutions of the test drug. The cultures were incubated for 3, 4 and 5 days for Vero, CEM, and PBM cells, respectively in a humidified 5% CO2-air at 37° C. At the end of incubation, MTT tetrazolium dye solution (Cell titer 96®, Promega, Madison, Wis.) was added to each well and incubated overnight. The reaction was stopped with stop solubilization solution (Promega, Madison, Wis.). The plates were incubated for 5 hours to ensure that the formazan crystals were dissolved. The plates were read at a wavelength of 570 nm using an ELISA plate reader (Bio-tek instruments, Inc., Winooski, Vt., Model # EL 312e). […] Bookmark not defined.

Series [2] relates to CEM (T-lymphoblastoid cell line). The class given is cell-based. The protocol: as §1
Series [3] deals with mitochondrial cytochrome C oxidase subunit II (COXII) gene. The format is cell-based, human. The conditions noted are these: HepG2, 10 μM, 7 days. From the text: The Q-RT-PCR technology was also used to evaluate potential mitochondrial γ-DNA polymerase inhibition by the compounds of the present invention in relevant human cells. […] Since active nucleoside compounds in the triphosphate form lack a 3′-OH, thereby stopping virus replication by chain termination, there is a concern that these nucleoside analogues are also substrates for the human DNA polymerase γ, resulting in inhibition of mitochondrial DNA replication and subsequently toxic side effects (11, 19). In an attempt to provide direct quantifiable data on mitochondrial DNA levels intracellular, a Q-PCR technology was designed and relative quantification of COXII DNA levels were calculated using the comparative Ct method. […] Also, in agreement with previous observations, no changes in normalized mitochondrial DNA levels were observed after FIAU and D4T treatment (6, 8, 23).
Low passage number HepG2 cells, obtained from American Tissue Culture Collection (ATCC, Manassas, Va.) were seeded at 5,000 cells/well in collagen-coated 96-well plates. Test compounds were added to the media to obtain a final concentration of 10 μM. On culture day 7, cellular nucleic acids were prepared by using commercially available columns (RNeasy 96 kit, Qiagen). […] The mitochondrial cytochrome C oxidase subunit II (COXII) gene and the β-actin or rRNA gene were amplified from 5 μL with a multiplex Q-PCR protocol using the suitable primers and probes for both target and reference (designed using the Primer Express software, Applied Biosystems); • for COXII. • sense primer 5′-[…]-3′ (Sequence 7); • probe 5′-TET-[…]-TAMRA-3′ (Sequence 8); and • antisense probe 5′-[…]-3′ (Sequence 9); • for exon 3 of β-actin (GenBank E01094): • sense primer 5′-[…]-3′ (Sequence 10); • probe 5′-6FAM-[…]-TAMRA-3′ (Sequnece 11); and • antisense probe 5′-[…]-3′ (Sequence 12).
The rRNA gene primers and probes were purchased from Applied Biosystems. Standard curves using 1-log diluted total HepG2 DNA were linear over more than 5 logs. In addition, efficiencies of target (COXII DNA) and reference (β-actin DNA or rRNA) amplification were approximately equal, because the slope of the ΔCt line (Ct β-actin minus Ct mitochondrial) was less than 0.1 (not shown). Since equal amplification efficiencies were obtained for both genes, the comparative cycle threshold (Ct) method was used to investigate potential inhibition of the mitochondrial DNA polymerase γ. The comparative Ct method uses arithmetic formulas in which the amount of target (COXII gene) is normalized to an endogenous reference (β-actin gene or rRNA gene) and is relative to a calibrator (no drug control at day 7). The arithmetic formula for this approach is given by 2-ΔΔCt (User bulletin # 2, Applied Biosystems).
In order to study the consequences of possible inhibitory effects of these compounds on host DNA polymerases, nuclear and rnitochondrial DNA levels were quantified and compared to no-treatment controls. Cells were incubated for 7 days with 10 μM of each compound, followed by total nucleic acid extractions and multiplex Q-PCR of the rRNA gene and the mitochondrial COXII gene. Nucleic acids from cells exposed to the control compounds were also amplified in multiplex for mitDNA and the β-actin gene. The results are presented in Table 4 using the comparative Ct method.

For `O=c1[nH]cnc2c1ncn2[C@@H]1S[C@H](CO)C=C1F` [Compound D-28, (+)-9-[(1R,4S)-2,3-dideoxy-2,3-didehydro-2-fluoro-4-thio-β-D-ribofuranosyl]-hypoxanthine], the 50% inhibitory concentration (IC50) (in the series on human PBM cells; in series [1]; in series [2]) was over 100 µM in each case. The EC50 with HIV-1LAI stood at 43.6 µM.

For `Nc1nc2c(ncn2[C@@H]2S[C@H](CO)C=C2F)c(=O)[nH]1` [Compound D-32, (−)-9-[(1R,4S)-2,3-dideoxy-2,3-didehydro-2-fluoro-4-thio-β-D-ribofuranosyl]-guanosine], the half-maximal inhibitory concentration (IC50) (with human PBM cells; in series [1]; in series [2]) was over 100 µM in each case. Besides, the EC50 with HIV-1LAI amounted to 80.5 µM.

Take `Nc1nc(F)nc2c1ncn2[C@@H]1S[C@H](CO)C=C1F` [Compound D-33, (+)-9-[(1R,4S)-2,3-dideoxy-2,3-didehydro-2-fluoro-4-thio-β-D-ribofuranosyl]-2-fluoroadenosine]: the IC50 in the series on human PBM cells stood at 1.5 µM; in series [1], 7.6 µM; in series [2], 1.1 µM. For the same compound, the concentration for a half-maximal effect (EC50) with HIV-1LAI stood at 1.2 µM.

In the case of `Cc1cn([C@H]2S[C@@H](CO)C=C2F)c(=O)[nH]c1=O` [Compound L-19, (+)-1-[(1S,4R)-2,3-dideoxy-2,3-didehydro-2-fluoro-4-thio-β-L-ribofuranosyl]-thymine], the 50% inhibitory concentration (IC50) (in the series on human PBM cells; in series [1]; in series [2]) was over 100 µM each time. Further, the EC50 with HIV-1LAI is over 100 µM.

With `O=c1ccn([C@H]2S[C@@H](CO)C=C2F)c(=O)[nH]1` [Compound L-20, (+)-1-[(1S,4R)-2,3-dideoxy-2,3-didehydro-2-fluoro-4-thio-β-L-ribofuranosyl]-uracil], the IC50 (in the series on human PBM cells; in series [1]; in series [2]) was over 100 µM in each case. For the same compound, the half-maximal effective concentration (EC50) in the series with HIV-1LAI is over 100 µM.

Regarding `Nc1ncnc2c1ncn2[C@H]1S[C@@H](CO)C=C1F` [Compound L-27, (−)-9-[(1S,4R)-2,3-dideoxy-2,3-didehydro-2-fluoro-4-thio-β-L-ribofuranosyl]adenine], the IC50 (with human PBM cells; in series [1]; in series [2]) was over 100 µM in each case. For the same compound, in the series with HIV-1LAI, the EC50 was determined as 1.7 µM.

`O=c1[nH]cnc2c1ncn2[C@H]1S[C@@H](CO)C=C1F` [Compound L-28, (−)-9-[(1S,4R)-2,3-dideoxy-2,3-didehydro-2-fluoro-4-thio-β-L-ribofuranosyl]-hypoxanthine]: the IC50 (with human PBM cells; in series [1]; in series [2]) was over 100 µM in each case. Moreover, the EC50 in the series with HIV-1LAI stood at 15.5 µM.

Consider `Nc1nc2c(ncn2[C@H]2S[C@@H](CO)C=C2F)c(=O)[nH]1` [Compound L-32, (+)-9-[(1S,4R)-2,3-dideoxy-2,3-didehydro-2-fluoro-4-thio-β-L-ribofuranosyl]-guanosine], for which the IC50 was found to be 13 µM in the series on human PBM cells, 66.1 µM in series [1] and 10.4 µM in series [2].

In the case of `Cc1cn([C@H]2C=C[C@@H](CO)O2)c(=O)[nH]c1=O` [D-D4T, β-D-2′,3′-didehydro-3′-deoxythymidine], in series [3] (COXII DNA normalized to β-actin DNA, 2-ΔΔCt), the “COXIINβ-actin DNA (range) relative to control” value is on record as 0.85 (0.79-0.88). Further, in series [3], the “Average ΔCt ± SD COXII DNA” value is on record as 0.29 ± 0.01; the “Average ΔΔCt ± SD COXII-β-actin” value worked out at 0.23 ± 0.04; the “effect on (normalized) mitochondrial COXII DNA levels, in words” value is on record as “no changes”.

For the compound `Nc1ccn([C@H]2CC[C@@H](CO)O2)c(=O)n1` [D-ddC, β-D-2′,3′-dideoxycytidine], in series [3] (COXII DNA normalized to rDNA, 2-ΔΔCt), the “COXIINrDNA (range) relative to control” value was 0.23 (0.15-0.37). Further, in series [3], the “Average ΔΔCt ± SD COXII-rDNA” value is on record as 2.09 ± 0.65^d; the “Average ΔΔCt ± SD COXII-β-actin” value is 2.9 ± 0.23^d; the “effect on (normalized) mitochondrial COXII DNA levels, in words” value was “reduce rnitochondrial COXII DNA levels”.

For “(−)-1-[(1S,4R)-2,3-dideoxy-2,3-didehydro-2-fluoro-4-thio-β-D-ribofuranosyl]-thymine [Compound D-19]”, the 50% inhibitory concentration (IC50) in the series with human PBM cells was over 100 µM; in series [1], 53 µM; in series [2], over 100 µM. For the same compound, the EC50 in the series with HIV-1LAI was 92.3 µM.

On to “(−)-1-[(1S,4R)-2,3-dideoxy-2,3-didehydro-2-fluoro-4-thio-β-D-ribofuranosyl]-uracil [Compound D-20]”, for which the half-inhibitory concentration (IC50) (in the series on human PBM cells; in series [1]; in series [2]) was over 100 µM throughout. Also, the EC50 in the series on HIV-1LAI was over 100 µM.
